Experiments:
[1] = tested on: rat aorta rings; assay: Contraction of rat aorta rings induced by pyrogallol (superoxide radicals); conditions: dipotassium salt form, 100 μM; FIG. 8
Protocol: (§1) The objective of this example is to show the antioxidant activity of norbadione in the dipotassium salt form on rat aorta rings.
During a first series of tests, rat aorta rings are subjected, in a first instance, to pyrogallol, which generates superoxide radicals, these radicals inducing contraction of the rat aorta rings and the rate of contraction of these rings is measured in the absence of norbadione.
In a second instance, the same operations are repeated, under the same conditions as those mentioned above, this time in the presence of norbadione.
The results are grouped together in FIG. 8, which represents the rate of vascular contraction of the rings C(g) as a function of the concentration of pyrrogallol [Pyr] (μM), in the absence of norbadione (curve a) and in the presence of norbadione at the concentration of 100 μM (curve b).

[2] = tested on: thymidine; assay: Thymidine degradation test, chemical oxidant stress (Fenton's reagent), competition ELISA of remaining thymidine; type: biochemical; conditions: dipotassium salt (Nor-B); Fenton's reagent 0.35 mM FeSO4/EDTA, 35 mM H2O2; thymidine 70 μM, antioxidant 20 μM; FIG. 3; compared with conventional antioxidants (1)-(6)
Protocol: (§2) The evaluation of the antioxidant activity of the dipotassium salt of norbadione was carried out by a screening test in vitro.
(§3) This test is based on the monitoring of the degradation of thymidine subjected to various oxidant stresses in the presence of various antioxidant agents, which are norbadione in dipotassium salt form (called Nor-B in FIGS. 1 to 3) in accordance with the invention, and the following antioxidant agents: quercitin (1), fisetin (2), myricetin (3), catechin (4), 7-hydroxy-4-methyl-8-nitrocoumarin (5), Trolox (6) in FIGS. 1 to 3.
(§4) In the presence of an antioxidant, thymidine is protected more or less effectively according to the nature of the said antioxidant. The efficacy of the antioxidant is quantified by assaying the remaining thymidine (quantified as % on the y-axis of the graph) with the aid of an immunoenzymatic assay of the so-called “competition” ELISA type. This ELISA assay consists in producing competition, for binding to a thymidine-specific monoclonal antibody attached to a solid phase, between the thymidine remaining at the end of test and the thymidine labelled with an enzyme (acetylcholine esterase). After washing, the bound enzyme is quantified by colorimetric detection with the aid of 5,5′-dithiobis(2-nitrobenzoic acid) (termed Ellmann's reagent) and in the presence of […]. […]

[3] = tested on: RDM4 cell cultures (AKR mouse lymphomas); assay: Protection of RDM4 cells subjected to ionizing radiation, Uptiblue test; type: cell-based; conditions: for number of living cells after irradiation (Uptiblue fluorescence, A.F.U.): 0.12 to 20 μg/ml added two hours before X rays 15 MV, 8 Gy, sixth day, FIG. 6
Protocol: This test consists in measuring, in the presence or in the absence of norbadione in diacid or dipotassium salt form, the rate of survival of cells treated with ionizing radiation, with the aid of selective indicators for certain cellular organelles such as mitochondria.
Samples of norbadione in diacid or dipotassium salt form are added to RDM4 cell cultures (AKR mouse lymphomas) in increasing concentrations (from 0.12 to 20 μg/ml), two hours before irradiation. This is carried out by exposing microtest plates containing the cells to X rays of 15 MV, at 8 Gy, the culture medium being unchanged.
The number of living cells is determined on the sixth day by means of the Uptiblue test (which consists in measuring the micochondrial activity of the cells). The Uptiblue reagent (reazurin, also marketed under the ALAMAR BLUE trade mark) is a coloured oxidation-reduction indicator. The reazurin (blue and nonfluorescent) is reduced to resorufin (pink and fluorescent) by living cells.
Experimentally, the Uptiblue (diluted ¼ in the culture medium) is added to the cells in an amount of 20 μl per 200 μl well. After incubating for 4 hours at 37° C., the fluorescence is measured at a wavelength of 590 nm, after excitation at a wavelength of 530 nm with the aid of a fluorescence microplate reader (Fluorolite 1000, Dynex). The fluorescence intensity is proportional to the number of living cells. It is expressed as “arbitrary fluorescence unit”. This value depends on the setting of the apparatus (in particular the voltage) and the background noise (due to the fluorescence emitted by wells not containing cells, but containing Uptiblue). The latter value is subtracted from the experimental values.
The results of this test are grouped together in FIG. 6, which represents the fluorescence observed which makes it possible to quantify the number of living cells, the said fluorescence being expressed as arbitrary fluorescence units on the y-axis of the graph (A.F.U) as a function of the concentration of norbadione in the diacid or dipotassium salt form, noted [Nor-A] or [Nor-B] (in μg/ml).

[4] = tested on: thymidine; assay: Thymidine degradation test, gamma irradiation (caesium 137), competition ELISA of remaining thymidine; type: biochemical; conditions: dipotassium salt (Nor-B); gamma irradiation 3 h 30 min, 137Cs; thymidine 15 μM, antioxidant 12 μM; FIG. 1; compared with quercetin, fisetin, myricetin, catechin, 7-hydroxy-4-methyl-8-nitrocoumarin, Trolox
Protocol: as §2, §3, §4

[5] = tested on: thymidine; assay: Thymidine degradation test, ultraviolet irradiation at 254 nm with H2O2, competition ELISA of remaining thymidine; type: biochemical; conditions: dipotassium salt (Nor-B); UV 254 nm (1.75 J/cm^2), 5 mM H2O2; thymidine 70 μM, antioxidant 100 μM; FIG. 2; compared with conventional antioxidants (1)-(6)
Protocol: as §2, §3, §4

[6] = tested on: rat aorta rings; assay: Relaxation of rat aorta rings induced by SYN-1 (3-morpholinosydnonimine, NO radicals); conditions: dipotassium salt form, 100 μM; FIG. 9
Protocol: as §1
During a second series of tests, rat aorta rings are subjected to SYN-1 (3-morpholinosydnonimine), which generates NO radicals, inducing relaxation of the rat aorta rings, and the rate of relaxation of these rings is measured. In the presence of norbadione, the rate of relaxation of the rings is measured under the same conditions as those mentioned above. The results are presented in FIG. 9, which represents the rate of vascular relaxation of the rings R(%) as a function of the Sin−1 concentration [Sin−1] (μM), in the absence of norbadione (curve a) and in the presence of norbadione (100 μM) (curve b).

[7] = tested on: TNF-α; assay: TNF-α production by lipopolysaccharide-activated human PBMC, cytometric sandwich ELISA; type: cell-based; conditions: 10^-8 M to 10^-5 M, Salmonella abortus equi lipopolysaccharide 5 μg/ml, 24 hours, FIGS. 4 and 5
Protocol: (§5) This liposaccharide is an endotoxin located on the outer membrane of Gram-negative bacteria. In particular, it stimulates the production of proinflammatory cytokines by the mononuclear cells (monocytes, microphages) of the infected host.
(§6) This test is carried out in the following manner. […]
(§7) More specifically, the detection of the cytokines present in the samples is measured with the aid of a “sandwich” type cytometric ELISA assay. Microparticles (beads) of polystyrene (of 6 different types, each being labelled with a different quantity of fluorescent dye whose FL-3 emission wavelength is about 650 nm) are coupled to an antibody specific for one of the […] TNFα, IL-2, IL-10. […] The cytokines captured are detected with the aid of a directly performed immunological test which uses 2 antibodies specific for each cytokine, coupled to phycoerythrin which emits at an FL-2 wavelength of about 585 nm (Ab-PE). After washing the excess Ab-PE, the presence of the cytokines is measured by flow cytometry.
(§8) The fluorescence is measured based on the 6 FL-3 fluorescence intensities and based on the FL-2 wavelength. The intensity of the […] fluorescence makes it possible to determine the quantity of each cytokine present in the sample (in comparison with standard curves). […]

[8] = tested on: Human thyroid carcinoma K1 cells; assay: Protection of K1 cells against cisplatin, sulphorhodamine B test; type: cell-based; conditions: norbadione 20 μg/ml added two hours before cisplatin 12 to 100 μM, two days, FIG. 7
Protocol: This test consists in measuring, in the presence of norbadione in the diacid or dipotassium salt form, the rate of survival of cells treated with cisplatin.
Human thyroid carcinoma K1 cells are cultured in flat-bottomed 96-well microtest plates in the presence of a single concentration (20 μg/ml) of norbadione in the diacid or dipotassium salt form. After two hours, a genotoxic agent, cisplatin, is added to the culture medium in increasing concentrations (from 12 to 100 μm). Two days later, the number of cells is determined by means of the sulphorhodamine B (termed SRB) test, which measures the quantity of cellular proteins.
Sulphorhodamine B (termed SRB) is an anionic dye which binds electrostatically to cellular proteins. This test is frequently used for the evaluation of the cytotoxic and cytostatic activities of novel antitumour drugs.
Further information relating to this technique is available in the article by Papazisis et al. “Optimization of the sulforhodamine B colorimetric assay”, J. Immunol. Meth, 208, pages 151-158, 1997 [8].
The results of this test are grouped together in FIG. 7, which represents the fluorescence observed after addition of SRB (expressed as arbitrary fluorescence units) as a function of the cisplatin concentration (in μM).

[9] = tested on: IL-10; assay: IL-10 production by lipopolysaccharide-activated human PBMC, cytometric sandwich ELISA; type: cell-based; conditions: 10^-8 M to 10^-5 M, Salmonella abortus equi lipopolysaccharide 5 μg/ml, 24 hours, FIGS. 4 and 5
Protocol: as §5, §6, §7, §8

Molecule	contraction of the aorta rings caused by pyrogallol [1]	antioxidant power (percentage of thymidine remaining after oxidant stress) [2]	number of living cells after irradiation (Uptiblue fluorescence) at the highest concentration ([3]; RDM4 cells, X rays 8 Gy, from a norbadione concentration of 20 μg/ml)	effect on the growth and the viability of the RDM4 cells ([3]; without irradiation, even at 20 μg/ml)	antioxidant power (percentage of thymidine remaining after oxidant stress) [4]	antioxidant power (percentage of thymidine remaining after oxidant stress) [5]	relaxation of the aorta rings caused by SYN-1 [6]	production of the cytokine TNF-α (percentage response relative to control) [7]	number of living cells after irradiation (Uptiblue fluorescence, A.F.U.) ([3]; RDM4 cells)	number of living cells after irradiation (Uptiblue fluorescence, A.F.U.) ([3]; RDM4 cells, listed as norbadione diacid form)	cytotoxicity of cisplatin in the presence of norbadione (SRB test) [8]	production of the cytokine IL-10 (percentage response relative to control) [9]	number of living cells after irradiation (Uptiblue fluorescence, A.F.U.) ([3]; RDM4 cells, listed as norbadione disalt form)
norbadione	suppressed	best antioxidant power	decreases considerably	without effect	best antioxidant power	best antioxidant power	reduced						
O=C1O/C(=C(/C(=O)O)c2ccc(O)cc2)C(O)=C1c1cc2c3c(c(O)cc(C4=C(O)/C(=C(\C(=O)O)c5ccc(O)cc5)OC4=O)c3c1)OC2=O [Nor-A, norbadione]								significant dose-dependent reduction	large increase	protects the cells against ionizing radiation in a significant and dose-dependent manner	very markedly attenuated	significant dose-dependent reduction	
O=C1O/C(=C(/C(=O)[O-])c2ccc(O)cc2)C(O)=C1c1cc2c3c(c(O)cc(C4=C(O)/C(=C(\C(=O)[O-])c5ccc(O)cc5)OC4=O)c3c1)OC2=O.[K+].[K+] [Nor-B, norbadione]								significant dose-dependent reduction	large increase		very markedly attenuated	significant dose-dependent reduction	protects the cells against ionizing radiation in a significant and dose-dependent manner
